Measurements reported in patent US20170226123A1, “Phenylaminopyrimidine-Derived Compounds, Method for Obtaining, Using Said Compounds in the Treatment of Cancer, and Treatment Methods” (Fundacao Oswaldo Cruz, priority 2014, published 2017).
Entries after “also recorded” stand apart in the source; their conditions may differ.

Assays:
[1] = system: K562; assay: Annexin V/propidium iodide cell death assay by flow cytometry, K562; conditions: K562, 24 h, 0.25-1.0 μM
Protocol: (§3) Cells were incubated for 24 hours with or without addition of the novel compounds. The index of apoptosis induced by the novel compounds was obtained as follows: percentage of cells in induced apoptosis (treated with the drugs) minus the percentage of cells in spontaneous apoptosis (not treated with the drugs) (Vasconcelos et aL, 2007; Vasconcelos et al., 2011).
(§4) To analyze the apoptosis induction potential by the new imatinib derivatives, annexin V/propidium iodide assay was used by flow cytometry.
(§5) To analyze death by apoptosis, the cells were incubated for 24 hours instead of 72 hours.
(§6) Cells without addition of any drug were used for the evaluation of spontaneous death. Cells incubated with DMSO (used to solubilize the compounds derived from imatinib) were used to discard the effect of this substance on cell death induction.

[2] = system: K562-Lucena 1; conditions: MTT, 72 h; for viability reduction compared between K562 and Lucena lineages: FIG. 2A
Protocol: (§7) Cell viability was evaluated through the MTT method, after 72 hours of incubation with TKIs. MTT is a colorimetric method which measures mitochondrial dehydrogenase activity, based on the ability of living cells to reduce the salt, 3-(4,5-dimethylazole-2-yl)-2,5-diphenyltetrazolium bromide in the product formazan.
(§8) Cells were cultured in plates of 96 wells at the concentration of 1×10^4 cells/well in 200 μl of RPMI supplemented with 10% fetal bovine serum. 10 μl of each of the novel TKIs, or imatinib, previously diluted in RPMI medium, were added in different concentrations, and no molecule or imatinib was added in the control group. The plates were kept in a humid atmosphere containing 5% CO2 at 37° C. for 72 hours. Four hours before completion of the established time (72 hours), 20 μl of MTT (Sigma) (final concentration of 10 μg/ml) were added. The plates were kept in the oven for the remaining four hours. 180 μl of the supernatant were removed from each well, and then 150 μl of dimethylsulfoxide (DMSO; Sigma) were added, homogenizing thoroughly for complete dissolution of the salt crystals formed by mitochondrial metabolism, thus resulting in a coloration. […] The 96-well plate was read by the spectrophotometer (Spectramax Plus 384), using a wavelength of 570 nm. The results were analyzed through the absorbance of each well. The viability percentage was obtained through the following formula: [(Absorbance of cells treated with TKIs or imatinib/Absorbance of untreated cells)×100]. All the tests were performed in three different occasions. Three experiments, at least, independent, were carried out and triplicates were made for each concentration.
(§9) The compounds were tested for their cytotoxicity in this lineage.
(§10) The viability of the Lucena cell lineage was evaluated after 72 h of incubation with the novel compounds, through the MTT assay.

[3] = system: K562; assay: Cell cycle and DNA fragmentation analysis (propidium iodide, flow cytometry), K562; assay type: cell-based, human; conditions: K562, 24 h
Protocol: (§1) The analysis of the impact of the new compounds on the phases of the cell cycle and on the induction of DNA fragmentation were carried out by DNA labeling with the fluorochrome propidium iodide. The assays were analyzed by flow cytometry and the results were analyzed in relation to the control (cells without treatment).
(§2) The induction of DNA fragmentation by the new compounds and by imatinib was assessed by flow cytometry. The analysis of cell cycle and DNA fragmentation was carried out upon 24 hours of incubation with the compounds.

[4] = system: K562-Lucena 1; assay: Annexin V/propidium iodide cell death assay by flow cytometry, K562-Lucena 1; conditions: for induction of cell death (annexin-positive and annexin/PI-positive cells): Lucena, 0.25-1.0 μM
Protocol: as §3, §4, §5, §6

[5] = system: K562; assay: MTT cell viability, K562 lineage; conditions: for Cell viability percentage: average of three independent experiments;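 as to all read-outs here: K562 cells (BCR-ABL expressing, CML derived), MTT formazan absorbance after 72 h exposure, compared with untreated control cells, at least three independent experiments run in triplicate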
Protocol: as §7
Cells were cultured in plates of 96 wells at the concentration of 1×10^4 cells/well in 200 μl of RPMI supplemented with 10% fetal bovine serum. 10 μl of each of the novel TKIs, or imatinib, previously diluted in RPMI medium, were added in different concentrations, and no molecule or imatinib was added in the control group. The plates were kept in a humid atmosphere containing 5% CO2 at 37° C. for 72 hours. Four hours before completion of the established time (72 hours), 20 μl of MTT (Sigma) (final concentration of 10 μg/ml) were added. The plates were kept in the oven for the remaining four hours. 180 μl of the supernatant were removed from each well, and then 150 μl of dimethylsulfoxide (DMSO; Sigma) were added, homogenizing thoroughly for complete dissolution of the salt crystals formed by mitochondrial metabolism, thus resulting in a coloration. […] The 96-well plate was read by the spectrophotometer (Spectramax Plus 384), using a wavelength of 570 nm. The results were analyzed through the absorbance of each well. The viability percentage was obtained through the following formula: [(Absorbance of cells treated with TKIs or imatinib/Absorbance of untreated cells)×100]. All the tests were performed in three different occasions. Three experiments, at least, independent, were carried out and triplicates were made for each concentration. By means of this method, we detected the cell inhibition percentage of each new molecule and we compared it with the percentage of viability reduction caused by imatinib.

[6] = system: K562-Lucena 1; assay: cells; conditions: Homo sapiens, K562-Lucena 1, 72 h, read-out: reduction in the viability
Protocol: as §7, §8, §9, §10

[7] = system: CML; conditions: CML patients treated with imatinib (Hunter, 2007); cited from earlier work
[8] = system: K562-Lucena 1; assay: Cell cycle and DNA fragmentation analysis (propidium iodide, flow cytometry), K562-Lucena 1; assay type: cell-based, human; conditions: 24 h
Protocol: as §1, §2

[9] = Homo sapiens, K562, 72 h, read-out: Cell viability percentage

SMILES | induction of cell death (annexin-positive and annexin/PI-positive cells) [1] | viability reduction compared between K562 and Lucena lineages [2] | induction of cell death (annexin-positive and annexin/PI-positive cells) ([4]; 24 h) | Cell viability percentage ([5]; K562, MTT, 72 h, 0.05 μM) [%] | Cell viability percentage ([5]; K562, MTT, 72 h, 0.1 μM) [%] | Cell viability percentage ([5]; K562, MTT, 72 h, 0.25 μM) [%] | Cell viability percentage ([5]; K562, MTT, 72 h, 0.5 μM) [%] | Cell viability percentage ([5]; K562, MTT, 72 h, 1.0 μM) [%] | Cell viability percentage ([5]; K562, MTT, 72 h, 1.5 μM) [%] | Cell viability percentage ([5]; K562, MTT, 72 h, 2.0 μM) [%] | Cell viability percentage ([5]; K562, MTT, 72 h, 2.5 μM) [%] | Cell viability percentage ([5]; K562, MTT, 72 h, 3.0 μM) [%] | Cell viability percentage ([5]; K562, MTT, 72 h, 4.0 μM) [%] | Cell viability percentage ([5]; K562, MTT, 72 h, 5.0 μM) [%] | increase in the number of cells in G0/G1 phase (halt in G0/G1) [3] | further results
C[C@H]1[C@@H](OC(=O)CCC(=O)O)O[C@@H]2O[C@@]3(C)CC[C@H]4[C@H](C)CC[C@@H]1[C@@]24OO3.Cc1ccc(N)cc1Nc1nccc(-c2cccnc2)n1 [Compound 04, 4-methyl-3-((4-(pyridin-3-yl)pyrimidin-2-yl)amino)benzenaminium-4-oxo-4-(((3R,5aS,6R,8aS,9R,10R,12R,12aR)-3,6,9-trimethyldecahydro-3H-3,12-epoxy[1,2]dioxepin[4,3-yl]isochromen-10-yl)oxy)butanoate] | induced cell death, probably by apoptosis | more effective in the Lucena lineage; also recorded: greater percentage of reduction of cell viability than the K562 lineage | induced cell death, probably by apoptosis | 97.54 | 86.68 | 87.20 | 79.53 | 85.68 | 69.52 | 56.13 | 53.28 | 48.95 | 48.17 | 47.69 | – | alterations in the cell cycle [3]: did not foster alterations in the cell cycle; cell death rate compared with imatinib ([4]; Lucena lineage): higher; reduction of viability ([5]; K562, MTT, 72 h, 2.5 μM): 50%
Cc1ccc(NC(=O)c2ccc(CN3CCN(C)CC3)cc2)cc1Nc1nccc(-c2cccnc2)n1 [Imatinib, imatinib, reference compound] | – | – | – | – | – | – | – | – | – | – | – | – | – | – | about 10% | cytotoxicity at 0.25 µM [6]: ~60%; patients reaching hematological remission [7]: ~100%; concentration from which viability reduction reached a plateau ([2]; Lucena): 1.5 µM; DNA fragmentation [3]: induced DNA fragmentation; viability at 0.05 µM [5, 9]: 93.5%; viability at 0.1 µM [5, 9]: 63.4%; viability at 0.25 µM [5, 9]: 54.5%; viability at 0.5 µM [5, 9]: 20.1%; viability at 1 µM [5, 9]: 16.3%; viability at 1.5 µM [5, 9]: 14.3%; viability at 2 µM [5, 9]: 19.8%; viability at 2.5 µM [5, 9]: 19.4%; viability at 3 µM [5, 9]: 14.8%; viability at 4 µM [5, 9]: 13.5%; viability at 5 µM [5, 9]: 15%
C[C@H]1[C@@H](OC(=O)CCC(=O)O)O[C@@H]2O[C@@]3(C)CC[C@H]4[C@H](C)CC[C@@H]1[C@@]24OO3.Cc1ccc(NC(=O)c2ccc(CN3CCN(C)CC3)cc2)cc1Nc1nccc(-c2cccnc2)n1 [Compound 03, N-(2-methyl-5-(4-((4-methylpiperazine-1-yl)methyl)benzamide)phenyl)-4-(pyridin-3-yl)pyrimidin-2-aminium-4-oxo-4-(((3R,5aS,6R,8aS,9R,10R,12R,12aR)-3,6,9-trimethyldecahydro-3H-3, 12-epoxy[1,2]dioxepin[4,3-yl]isochromen-10-yl)oxy)butanoate] | induced cell death, probably by apoptosis | reduced the viability in the two lineages in a similar way | induced cell death, probably by apoptosis | 77.68 | 82.43 | 43.45 | 20.16 | 18.11 | 16.73 | 15.12 | 17.89 | 16.69 | 16.51 | 15.76 | about 10% | DNA fragmentation [8]: induced DNA fragmentation; cell death rate in Lucena compared with K562 ([4]; 24 h): greater cell death rate than the K562 lineage; reduction in cell viability ([5]; K562, MTT, 72 h, 0.25 μM): about 50%
